Laboratory results taken from patent US20220241429A1, “Antifolate-Carrying Nanoparticles and Their Use in Medicine” (priority 2018, published 2022).

Assays:
U87MG cells = experiment: Cytotoxic or cytostatic activity on U87MG cells; format: cell-based; conditions: Homo sapiens, U-87 MG; Incubation time 72 hours, concentration range 40 pM to 500 μM
Description: (§1) The cytotoxic or cytostatic activity of methotrexate, the linker-modified methotrexate, MTX-(EG)3-NH2 and of MTX-(EG)3-NH2-loaded gold nanoparticles (GNPs) ([MTX-(EG)3-NHC(O)-(EG)8][alpha-Gall][COOH-(EG)8]@Au) was assessed by treatment of Hep3B and U87MG cells. Incubation time was 72 hours and the concentration range was 40 pM to 500 μM. The results are expressed as IC50 and are as follows: […]

Hep3B cells = experiment: Cytotoxic or cytostatic activity on Hep3B cells; format: cell-based; conditions: Homo sapiens, Incubation time 72 hours, concentration range 40 pM to 500 μM
Description: as §1

Row | SMILES | IC50 (U87MG cells) | IC50 (Hep3B cells)
1 | CN(Cc1cnc2nc(N)nc(N)c2n1)c1ccc(C(=O)N[C@@H](CCC(=O)O)C(=O)O)cc1 [MTX, Methotrexate] | 0.001 to 1 µM | 0.001 to 1 µM
2 | CN(Cc1cnc2nc(N)nc(N)c2n1)c1ccc(C(=O)NC(CCC(=O)NCCCOCCOCCOCCCN)C(=O)O)cc1 (stereo not shown) [MTX-(EG)3-NH2, 4-[(3-{2-[2-(3-aminopropoxy)ethoxy]ethoxy}propyl)carbamoyl]-2-[(4-{[(2,4-diaminopteridin-6-yl)methyl](methyl)amino}phenyl)formamido]butanoic acid] | 1 to 1000 µM | 0.001 to 1 µM
